Experiments:
Type in all cases: in vivo
corn (Zea mays) = assay: Test A postemergence
Description: (§1) Seeds of plant species selected from barnyardgrass (Echinochloa crus-galli), Kochia (Kochia scoparia), ragweed (common ragweed, Ambrosia elatior), ryegrass, Italian (Italian ryegrass, Lolium multiflorum), crabgrass, large (Digitaria sanguinalis), giant foxtail (Setaria faberii), green foxtail (Setaria viridis), morningglory (Ipomoea spp.), pigweed (Amaranthus retroflexus), velvetleaf (Abutilon theophrasti), wheat (Triticum aestivum), and corn (Zea mays) were planted into a blend of loam soil and sand and treated preemergence with a directed soil spray using test chemicals formulated in anon-phytotoxic solvent mixture which included a surfactant.
(§2) At the same time, plants selected from these crop and weed species and also blackgrass (Alopecurus myosuroides), and Galium (catchweed bedstraw, Galium aparine) were planted in pots containing the same blend of loam soil and sand and treated with postemergence applications of test chemicals formulated in the same manner. Plants ranged in height from 2 to 10 cm and were in the one- to two-leaf stage for the postemergence treatment. Treated plants and untreated controls were maintained in a greenhouse for approximately 10 d, after which time all treated plants were compared to untreated controls and visually evaluated for injury. Plant response ratings, summarized in Table A, are based on a 0 to 100 scale where 0 is no effect and 100 is complete control. A dash (-) response means no test result.

[1] = test system: ryegrass, Italian (Italian ryegrass, Lolium multiflorum); assay: Test A postemergence
Description: as §1, §2

[2] = test system: blackgrass (Alopecurus myosuroides); assay: Test A postemergence
Description: as §1, §2

Kochia (Kochia scoparia) [3] = assay: Test A postemergence
Description: as §1, §2

[4] = test system: barnyardgrass (Echinochloa crus-galli); assay: Test A postemergence
Description: as §1, §2

[5] = test system: Galium (catchweed bedstraw, Galium aparine); assay: Test A postemergence
Description: as §1, §2

[6] = test system: giant foxtail (Setaria faberii); assay: Test A postemergence
Description: as §1, §2

[7] = test system: wheat (Triticum aestivum); assay: Test A postemergence
Description: as §1, §2

[8] = test system: ragweed (common ragweed, Ambrosia elatior); assay: Test A postemergence
Description: as §1, §2

[9] = test system: pigweed (Amaranthus retroflexus); assay: Test A postemergence
Description: as §1, §2

[10] = test system: sedge, umbrella (small-flower umbrella sedge, Cyperus difformis); assay: Test B flooded paddy test; conditions: Flood, 250 g ai/ha; 0 to 100 scale where 0 is no effect and 100 is complete control; 13 to 15 d
Description: (§3) Plant species in the flooded paddy test selected from rice (Oryra sativa), sedge, umbrella (small-flower umbrella sedge, Cyperus difformis), ducksalad (Heteranthera limosa), and barnyardgrass (Echinochloa crus-galli) were grown to the 2-leaf stage for testing. At time of treatment, test pots were flooded to 3 cm above the soil surface, treated by application of test compounds directly to the paddy water, and then maintained at that water depth for the duration of the test. Treated plants and controls were maintained in a greenhouse for 13 to 15 d, after which time all species were compared to controls and visually evaluated. Plant response ratings, summarized in Table B, are based on a scale of 0 to 100 where 0 is no effect and 100 is complete control. A dash (-) response means no test result.

[11] = test system: barnyardgrass (Echinochloa crus-galli); assay: Test B flooded paddy test; conditions: Flood, 250 g ai/ha; 0 to 100 scale where 0 is no effect and 100 is complete control; 13 to 15 d
Description: as §3

rice (Oryra sativa) = assay: Test B flooded paddy test; conditions: Flood, 250 g ai/ha; 0 to 100 scale where 0 is no effect and 100 is complete control; 13 to 15 d
Description: as §3

[12] = test system: ducksalad (Heteranthera limosa); assay: Test B flooded paddy test; conditions: Flood, 250 g ai/ha; 0 to 100 scale where 0 is no effect and 100 is complete control; 13 to 15 d
Description: as §3

[13] = test system: ryegrass, Italian (Italian ryegrass, Lolium multiflorum); assay: Test A preemergence
Description: as §1, §2

Kochia (Kochia scoparia) [14] = assay: Test A preemergence
Description: as §1, §2

[15] = test system: barnyardgrass (Echinochloa crus-galli); assay: Test A preemergence
Description: as §1, §2

[16] = test system: giant foxtail (Setaria faberii); assay: Test A preemergence
Description: as §1, §2

[17] = test system: ragweed (common ragweed, Ambrosia elatior); assay: Test A preemergence
Description: as §1, §2

[18] = test system: pigweed (Amaranthus retroflexus); assay: Test A preemergence
Description: as §1, §2

[19] = 500 g ai/ha, postemergence, 0 to 100 scale, 0 no effect, 100 complete control
[20] = Postemergence, 125 g ai/ha, visual injury, 0 to 100 scale (0 no effect, 100 complete control), approx. 10 d
[21] = 125 g ai/ha, preemergence, 0 to 100 scale (0 no effect, 100 complete control)
[22] = Preemergence, 500 g ai/ha, 0 is no effect, 100 is complete control

Cc1ccc(C2CNC(=O)C2C(=O)Nc2ccccc2F)cc1F (racemic) [Compound 368]
50: Plant response rating, Ryegrass, Italian [1, 19] | Plant response rating, Galium [5, 19]
55: Plant response rating, Barnyardgrass [11]
15: Plant response rating, Rice (rice (Oryra sativa))
30: Plant response rating, Galium [5, 20] | Plant response rating, Wheat [7, 19] | Plant response rating, Ragweed [8, 19] | Ryegrass, Italian plant response rating (0 to 100 scale) [13, 22] | Kochia plant response rating (0 to 100 scale) (Kochia (Kochia scoparia) [14]; [22]) | Plant response rating, Ragweed [17, 21]
80: Plant response rating, Foxtail, Giant [6, 19]
100: Plant response rating, Ducksalad [12]
20: Plant response rating, Corn (corn (Zea mays); [19]) | Plant response rating, Ryegrass, Italian [1, 20] | Plant response rating, Foxtail, Giant [6, 20]
60: Plant response rating, Blackgrass [2, 19] | Ragweed plant response rating (0 to 100 scale) [17, 22]
90: Plant response rating, Barnyardgrass [4, 19] | Plant response rating, Barnyardgrass [4, 20] | Plant response rating, Barnyardgrass [15, 21] | Barnyardgrass plant response rating (0 to 100 scale) [15, 22] | Plant response rating, Foxtail, Giant [16, 21] | Foxtail, Giant plant response rating (0 to 100 scale) [16, 22]
0: Plant response rating, Corn (corn (Zea mays); [20]) | Plant response rating, Blackgrass [2, 20] | Plant response rating, Kochia (Kochia (Kochia scoparia) [3]; [19]) | Plant response rating, Kochia (Kochia (Kochia scoparia) [3]; [20]) | Plant response rating, Wheat [7, 20] | Plant response rating, Ragweed [8, 20] | Plant response rating, Pigweed [9, 19] | Plant response rating, Pigweed [9, 20] | Plant response rating, Sedge, Umbrella [10] | Plant response rating, Ryegrass, Italian [13, 21] | Plant response rating, Kochia (Kochia (Kochia scoparia) [14]; [21]) | Plant response rating, Pigweed [18, 21] | Pigweed plant response rating (0 to 100 scale) [18, 22]

— patent publication US12077503B2, “Substituted cyclic amides and their use as herbicides” (FMC CORPORATION, priority 2015, dated 2024)
